These results are taken from patent US10239830B2, “Benzenesulfonamide upregulators of NPC1 for Neimann-Pick disease and other lysosomal storage disorders” (ICAHN SCHOOL OF MEDICINE AT MOUNT SINAI, priority 2015, dated 2019).

Marks after values point to notes of the source that are not given here.

For experiment [1], the system named is NPC1 promoter. The experiment can be described thus: qHTS of NPC1 Promoter-Luciferase Reporter Gene Assay (firefly, Huh7). The following applies: 24 hours. The class given is cell-based, human. As for the experimental part: (§1) qHTS of NPC1 Promoter-Luciferase Reporter Gene Assay. For the second primary screen, a promoter assay was developed by engineering a vector using approximately 1.5 kb of the NPC1 promoter to drive the expression of the firefly luciferase reporter gene. Thus, NPC1 promoter activation results in luciferase expression. This vector was used to generate Huh7 cell lines stably expressing the NPC1-luciferase vector. […] Cells were plated for assays in OPTI-MEM I reduced-serum medium supplemented with 10% FBS at 1,500 cells/well in 5 μL in 1,536-well white opaque plates with 23 nL/well of test compound in DMSO solution. The assay plates were incubated at 37° C. for 24 hours, after which 3 μL/well BriteLite plus luciferase detection reagent mixture (Perkin Elmer) was added. Luminescence signal was measured in a ViewLux plate reader (Perkin Elmer) after a 10 minute incubation at room temperature.

Experiment [2] deals with Rab9 promoter. Briefly: qHTS of Rab9 Promoter-Luciferase Reporter Gene Assay (firefly, Huh7). The class given is cell-based, human. Conditions: 24 hours. As for the experimental part: as §1, with “Rab9” for “NPC1”, “the” for “the second”, “Rab9-luciferase” for “NPC1-luciferase”
A general note: qHTS replaces the single test concentration by a dilution series.

For orientation: EC50 means the concentration needed to bring the measured effect to its halfway point. A lower EC50 goes with greater potency. On to `CC(=O)c1ccc(C(=O)Nc2cccc(S(=O)(=O)N(C)C)c2)cc1` [Example 20], for which, in experiment [1], the “NPC1 EC50” value is “Inactive”. Also, in experiment [2], the half-maximal effective concentration (EC50) stood at 10.9 µM and the “Rab9 Eff.” value came to 110%.
On to `Cc1ccc(C(=O)Nc2cccc(S(=O)(=O)N(C)C)c2)c(C)c1` [Example 18], for which, in experiment [1], it took 5.4 µM to reach a half-maximal effect (EC50) and the “NPC1 Eff.” value was found to be 79%. Besides, in experiment [2], it took 12.2 µM to reach a half-maximal effect (EC50) and the “Rab9 Eff.” value turned out to be 97%.
On the same counts, the results for `CC(=O)c1c(C)[nH]c(C(=O)Nc2cccc(S(=O)(=O)N3CCCCCC3)c2)c1C` [Example 5] are 2.7 to 2.9 µM, 196-205%, 2 µM and 153%.
Turning to `Cc1ccc(C(=O)Nc2cccc(S(=O)(=O)N(C)C)c2)cc1` [Example 13], the “NPC1 EC50” value in experiment [1] is “Inactive”. In experiment [2], the half-maximal effective concentration (EC50) came to 6.9 µM and the “Rab9 Eff.” value is on record as 54%.
As for `CC(=O)c1c(C)[nH]c(C(=O)Nc2cccc(S(=O)(=O)N3CCN(C)CC3)c2)c1C` [Example 6], the “NPC1 EC50” value in experiment [1] is on record as “Inactive”. Moreover, in experiment [2], a half-maximal response (EC50) required 10.9 µM and the “Rab9 Eff.” value came to 82%.
As to `Cc1cccc(C(=O)Nc2cccc(S(=O)(=O)N(C)C)c2)c1` [Example 15], in experiment [1], it took 6.1 µM to reach a half-maximal effect (EC50) and the “NPC1 Eff.” value is given as 81%. In addition, in experiment [2], the EC50 worked out at 19.4 µM and the “Rab9 Eff.” value stood at 75%.
Take `CCc1ccc(NC(=O)c2[nH]c(C)c(C(C)=O)c2C)cc1S(=O)(=O)Nc1ccc(Br)cc1` [Example 35]: in experiment [1], the response was half-maximal at 0.7 µM (EC50) and the “NPC1 Eff.” value stood at 208%.
For `CC(=O)c1c(C)[nH]c(C(=O)Nc2cccc(S(=O)(=O)Nc3ccc(Br)c(F)c3)c2)c1C` [Example 23], in that order: 15.4 µM and 71^a %.
On to `CCN(CC)S(=O)(=O)c1cccc(NC(=O)c2[nH]c(C)c(C(C)=O)c2C)c1` [Example 2], for which, in experiment [1], the concentration giving a half-maximal response (EC50) came out at 7.7 µM and the “NPC1 Eff.” value worked out at 155%. For the same compound, in experiment [2], the response was half-maximal at 8.7 µM (EC50) and the “Rab9 Eff.” value is reported as 181%.
Take `CC(=O)c1c(C)[nH]c(C(=O)Nc2cccc(S(=O)(=O)N3CCCCC3)c2)c1C` [Example 4]: in experiment [1], the EC50 is 2.7 µM and the “NPC1 Eff.” value was 163%. Besides, in experiment [2], it took 1.7 µM to reach a half-maximal effect (EC50) and the “Rab9 Eff.” value was 134%.
As to `Cc1ccccc1C(=O)Nc1cccc(S(=O)(=O)N(C)C)c1` [Example 14], in experiment [1], the EC50 is 4.8 µM and the “NPC1 Eff.” value is 51%. Moreover, in experiment [2], the EC50 was 17.3 µM and the “Rab9 Eff.” value is 114%.
In the case of `CC(=O)c1c(C)[nH]c(C(=O)Nc2cccc(S(=O)(=O)N3CCOCC3)c2)c1C` [Example 7], in experiment [1], the response was half-maximal at 8.3 µM (EC50) and the “NPC1 Eff.” value came to 84%. In experiment [2], the EC50 worked out at 12.2 µM and the “Rab9 Eff.” value amounted to 122%.
Turning to `CCc1c(C)[nH]c(C(=O)Nc2cccc(S(=O)(=O)N(C)C)c2)c1C` [Example 9], in experiment [1], a half-maximal response (EC50) required 8.6 µM and the “NPC1 Eff.” value was 47%. Moreover, the “Rab9 EC50” value in experiment [2] is on record as “Inactive”.
Consider `CC(=O)c1c(C)[nH]c(C(=O)Nc2ccc(C)c(S(=O)(=O)Nc3ccc(Br)cc3)c2)c1C` [Example 34], for which, in experiment [1], the 50% effective concentration (EC50) was 1.7 µM and the “NPC1 Eff.” value was 248%.
As for `Cc1cccc(C)c1C(=O)Nc1cccc(S(=O)(=O)N(C)C)c1` [Example 17], in experiment [1], the concentration for a half-maximal effect (EC50) stood at 5.4 µM and the “NPC1 Eff.” value was found to be 127%. Further, in experiment [2], the EC50 was 5.5 µM and the “Rab9 Eff.” value was 131%.
Consider `Cc1cc(C)c(C(=O)Nc2cccc(S(=O)(=O)N(C)C)c2)[nH]1` [Example 8], for which, in experiment [1], the EC50 turned out to be 17.2 µM and the “NPC1 Eff.” value is 48%. In experiment [2], a half-maximal effect (EC50) was put at 38.7 µM and the “Rab9 Eff.” value is given as 82%.
With `CC(=O)c1c(C)[nH]c(C(=O)Nc2cccc(S(=O)(=O)Nc3ccc(Br)cc3)c2)c1C` [Example 32], in experiment [1], the half-maximal effective concentration (EC50) came to 4.3 µM and the “NPC1 Eff.” value was found to be 80%.
